The test system of the test is Vero-E6 cells. Kind of test: cells. It counts as cell-based. As to conditions: Chlorocebus sabaeus, Vero C1008, 24 h, read-out: PL_Result.

Residues, ends and D or L forms follow the SMILES beside them. *: point of attachment. PhAc = O=C(Cc1ccccc1)*

Regarding `CN1CCN(c2nc(C3=C(c4c[nH]c5ccccc45)C(=O)NC3=O)c3ccccc3n2)CC1` [SPE_K16761703], the activation at 10 µM amounted to 37.5%. The value for `CN1CCN(c2ccc3nc(-c4ccc5nc(-c6ccc(O)cc6)[nH]c5c4)[nH]c3c2)CC1` [SPE_K17026858] was -8.8%. The value for `COc1nccnc1NS(=O)(=O)c1ccc(N)cc1` [SPE_K17205817] was -0.746%. The value for `COc1ccccc1N1CCN(CCCCNC(=O)c2ccc3ccccc3c2)CC1` [SPE_K17378184] was 28.8%.

As for `C[C@H](NC(=O)/C(C#N)=C/c1ccc(O)c(O)c1)c1ccccc1` [SPE_K17415526], the activation at 10 µM was -1.61%. In the case of `O=C(NCCCN1CCOCC1)c1ccc(Cl)cc1` [SPE_K17979676] it was -11.4%; in that of `CCCCC/C=C\C/C=C\C/C=C\CCCCC(=O)O` [SPE_K18059238], 1.69%. The value for `CC(C)CNc1nc(-c2cccc3ncccc23)cn2c(-c3ccc(C(=O)NC4CC4)cc3)cnc12` [SPE_K18530250] was -11.5%; that for `C[C@]12CC[C@H](O)C[C@H]1CC[C@@H]1[C@@H]2C[C@@H](O)[C@]2(C)[C@@H](C3=CC(=O)OC3)CC[C@]12O` [SPE_K18619710] was -13.9%. Consider `CCN(c1ccccc1)c1cc(NC)[n+](C)c(C)n1` [SPE_K18678457], for which the activation at 10 µM was -5.38%. The value for `CN(C)C(=O)Oc1cccc([N+](C)(C)C)c1` [SPE_K18922609] was -9.73%; that for `CS(=O)(=O)c1ccc(-c2cnc(NCc3ccco3)n3cnnc23)cc1` [SPE_K19002914] was 5.68%.

Consider `CCN(CC)CCN(Cc1ccc(-c2ccc(C(F)(F)F)cc2)cc1)C(=O)Cn1c(SCc2ccc(F)cc2)nc(=O)c2c1CCC2` [SPE_K19085898], for which the activation at 10 µM was -5.09%. In the case of `CC(C)(Oc1ccc(Cl)cc1)C(=O)O` [SPE_K19111024] it was -0.104%; in that of `O=C1OC(c2ccc(O)cc2)(c2ccc(O)cc2)c2ccccc21` [SPE_K19227686], 1.99%. With `Cc1cc(OCc2nc(-c3ccccc3Cl)cs2)ccc1OCC(=O)O` [SPE_K19409553], the activation at 10 µM is 5.84%. The value for `COc1nccc(-c2c(-c3ccc(F)cc3)ncn2C2CCNCC2)n1` [SPE_K19412355] was 14.6%; that for `C[C@H](NC(=O)CNC(=O)c1cccc(Cl)c1)c1ccccc1` [SPE_K19482962] was -10.5%. Consider `Nc1nc(NCCc2ccc(O)cc2)nc2nc(-c3ccco3)nn12` [SPE_K19605405], for which the activation at 10 µM is -2.19%. Regarding `COc1ccc(S(=O)(=O)N2CCC[C@H]2C(=O)Nc2cc(C)cc(C)c2)cc1` [SPE_K19781342], the activation at 10 µM was determined as 0.676%. The value for `C[C@H](NC(=O)[C@@H](O)c1cc(F)cc(F)c1)C(=O)N[C@@H]1C(=O)N(C)c2ccccc2-c2ccccc21` [SPE_K20013301] was -13.5%. With `CN1C(=O)N(c2cc(Cl)cc(Cl)c2)C(=O)[C@]12CN(Cc1cc(C(=O)O)cs1)C[C@H]2c1ccc(C#N)cc1` [SPE_K20093108], the activation at 10 µM was -2.08%. On to `CCCCCCCCCCCCCCCCCCO` [SPE_K20501889], for which the activation at 10 µM was -5.89%. The value for `Cn1cc(C(=O)C(=O)N[C@H]2CN3CCC2CC3)c2ccccc21` [SPE_K20714604] was 10.1%; that for `COc1cc(COc2cc(N)c(Cl)cc2C(=O)CCC2CCN(CCNS(C)(=O)=O)CC2)cc(OC)c1` [SPE_K20742498] was -9.12%; that for `O[C@H]1[C@H](O)[C@@H](O)CN2CC[C@H](O)[C@H]12` [SPE_K20897876] was 7.21%. Regarding `CNC(=O)c1ccccc1Nc1nc(Nc2ccc(N3CCOCC3)cc2OC)ncc1Cl` [SPE_K21025364], the activation at 10 µM amounted to 15.8%. In the case of `CCCCc1nc(C)c(CC(=S)N(C)C)c(=O)n1Cc1ccc(-c2ccccc2-c2nnn[nH]2)cc1` [SPE_K21586122] it was -5.47%; in that of `Cc1csc(-c2nnc(Nc3ccc(Oc4ncccc4-c4ccnc(N)n4)cc3)c3ccccc23)c1` [SPE_K21728777], -11.5%; in that of `Cn1cc(-c2ccc(F)c(C(F)(F)F)c2)nc1C1CCN(c2ncnc3[nH]ncc23)CC1` [SPE_K21833260], -1.12%.

On to `CCOC(=O)c1ccccc1OC(N)=O` [SPE_K21892374], for which the activation at 10 µM stood at 3.89%.

As for `O=C1CCCN1CC#CCN1CCCC1` [SPE_K21936341], the activation at 10 µM was -3.09%.

On to `O=C(O)c1cc(-c2ccc(F)cc2F)ccc1O` [SPE_K22031190], for which the activation at 10 µM is -7.97%. With `COc1ccc(C(=O)c2ccccc2O)c(O)c1` [SPE_K22193694], the activation at 10 µM was -2.64%. The value for `CCOC(=O)CNC(=O)[C@@H]1CCCN1C(=O)Cc1ccccc1` [SPE_K22520627] (PhAc-Pro-Gly-OEt) was -4.57%; that for `c1ccc2oc(C3=NCCN3)cc2c1` [SPE_K22745370] was -9.99%; that for `Cc1cc(C)nc(NS(=O)(=O)c2ccc(NC(=S)NC(=O)COc3ccc(Br)cc3Cl)cc2)n1` [SPE_K22829793] was -2.21%. For `Cc1c(CN2CCN(C(=O)[C@H](C)O)CC2)sc2c(N3CCOCC3)nc(-c3cnc(N)nc3)nc12` [SPE_K23228615], the activation at 10 µM was -5.95%. Regarding `CCCCc1nc(Cl)c(C(=O)O)n1Cc1ccc(-c2ccccc2-c2nnn[nH]2)cc1` [SPE_K23533833], the activation at 10 µM was 4.67%. With `COc1cccc([C@H](O)C2CCN(CCc3ccc(F)cc3)CC2)c1OC` [SPE_K23647661], the activation at 10 µM was -9.45%. In the case of `CC(=O)O[C@H]1CC[C@@]2(C)C(=CC[C@@H]3[C@@H]2CC[C@]2(C)C(c4cccnc4)=CC[C@@H]32)C1` [SPE_K24048528] it was -6.34%. In the case of `Cn1c(=O)[nH]c2ncn(C)c2c1=O` [SPE_K24084088] it was -5.64%; in that of `COc1cc(/C=C/C(N)=O)cc(OC)c1OC` [SPE_K24507548], -1.45%. As to `O=C(NC(=O)c1c(F)cccc1Cl)NC1c2ccccc2-c2ccccc21` [SPE_K24527118], the activation at 10 µM was -7.81%.

Regarding `Fc1ccc(Cl)cc1-c1nc(Nc2ccncc2)c2nccnc2n1` [SPE_K24566386], the activation at 10 µM is -5.24%. In the case of `CCOC(=O)Nc1ccc2c(c1)N(C(=O)CN(CC)CC)c1ccccc1CC2` [SPE_K24570280] it was 3.49%; in that of `CC(C)(S)C(=O)N[C@@H](CS)C(=O)O` [SPE_K24697665], -4.72%. The value for `Cc1[nH]nc(C(F)(F)F)c1Cc1sc2c(c1C(=O)N1C[C@](C)(O)CO1)c(=O)n(C)c(=O)n2C(C)C` [SPE_K25210703] was -5.25%; that for `O=S(=O)(NCCCCCCc1ccccc1)c1cccc2c(Cl)cccc12` [SPE_K25875056] was -10.4%. As to `CC(C)(C)C(=O)OCC(=O)[C@H]1CC[C@H]2[C@@H]3CCC4=CC(=O)CC[C@]4(C)[C@H]3CC[C@]12C` [SPE_K26024145], the activation at 10 µM was -4.69%. Regarding `CCCCC/C=C\C=C/CCCCCCCCC(=O)O` [SPE_K26222048], the activation at 10 µM is -6.49%. As to `Cc1cc(OCc2nnc(SC3CCCC3)n2-c2cccnc2)ccc1-c1ccc(S(C)(=O)=O)cc1` [SPE_K26253904], the activation at 10 µM is -0.282%. With `COc1ccc(/C=C/C(=O)O)cc1` [SPE_K26273521], the activation at 10 µM is -9.12%.

With `CCCCCCCCCCCCCCCc1cccc(OCC(=O)NCCO)c1` [SPE_K26358347], the activation at 10 µM was -8.8%. On to `CC(=O)NCCNc1cc(Cl)nn2c(-c3cccc(S(=O)(=O)N(C)C)c3)c(C)nc12` [SPE_K26726854], for which the activation at 10 µM is 0.695%. Take `O=C(O)Cc1ccc(CCNS(=O)(=O)c2ccc(Cl)cc2)cc1` [SPE_K26813177]: the activation at 10 µM was -0.423%. For the molecule `O=[N+]([O-])c1ncc[nH]1` [SPE_K26824830], the activation at 10 µM was -1.75%. Regarding `O=c1c2ccccc2oc2ccccc12` [SPE_K27135764], the activation at 10 µM came to 4.69%.

`O=C(Cn1c(=O)sc2ccc(Cl)cc21)N1CCN(CCO)CC1` [SPE_K27293958]: the activation at 10 µM was determined as 2.56%.

On to `O=C(O)c1cc(O)c2c(c1)C(=O)c1cccc(O)c1C2=O` [SPE_K27335680], for which the activation at 10 µM is -8.5%. Take `Cc1cc(C)c2nc(-c3ccccn3)cc(C(=O)Nc3ccc(S(=O)(=O)Nc4onc(C)c4C)cc3)c2c1` [SPE_K27539181]: the activation at 10 µM was determined as 7.09%. In the case of `COc1ccc(Oc2c(Cl)cnn(C3c4ccccc4-c4ccccc43)c2=O)cc1` [SPE_K27732927] it was -5.19%; in that of `C[C@@H](N)[C@@H](O)c1ccccc1` [SPE_K27853494], -4.21%. In the case of `C=C1C(=O)O[C@@H]2[C@H]3O[C@]3(C)CC/C=C(\C)CC[C@@H]12` [SPE_K28120222], the activation at 10 µM is -7.03%.

For the molecule `CC[n+]1c(-c2ccccc2)c2cc(N)ccc2c2ccc(N)cc21` [SPE_K28354016], the activation at 10 µM stood at 9.76%. Regarding `O=C(N[C@H]1CN2CCC1CC2)c1ccc(Cl)cc1` [SPE_K28863208], the activation at 10 µM was -0.0405%. The value for `CN1CCC(=C2c3ccccc3CC(=O)c3sccc32)CC1` [SPE_K28936863] was -4.71%; that for `CC(=O)OCC(=O)[C@@]1(O)CC[C@H]2[C@@H]3CCC4=CC(=O)C=C[C@]4(C)[C@@]3(F)[C@@H](O)C[C@@]21C` [SPE_K29173907] was -3.84%; that for `O=S(=O)(Cc1ccccc1)Nc1ccc(-c2ccc3c(cnn3-c3ccc(F)cc3)c2)c(C(F)(F)F)c1` [SPE_K29328421] was -4.77%. In the case of `CC(=O)Nc1nc(C)c(-c2ccc(Cl)c(S(=O)(=O)NCCO)c2)s1` [SPE_K29395450] it was -9.8%; in that of `C=CCN1C[C@H](C)N([C@H](c2ccc(C(=O)N(CC)CC)cc2)c2cccc(OC)c2)C[C@H]1C` [SPE_K29546239], 1.37%; in that of `COc1cc(C(=S)N2CCOCC2)cc(OC)c1OC` [SPE_K29570907], -7.35%.

Take `CN1CCN(CCc2ccc(Cl)c(Cl)c2)CC1` [SPE_K29668683]: the activation at 10 µM turned out to be 11.7%. Turning to `O=C(Cc1ccc(-c2ccc(OCCN3CCOCC3)cc2)cn1)NCc1ccccc1` [SPE_K29968218], the activation at 10 µM was -4.21%.
